Consider 38 compounds from ChEMBL document CHEMBL5442379, “ASAP - SARS-CoV-2 nsp3 macrodomain single point” (2024).

The structures appear in SMILES notation.

The target in this test is Replicase polyprotein 1ab (Severe acute respiratory syndrome coronavirus 2) (UniProt P0DTD1).

Description: Functional biochemical assay to identify treatments for viral infectious disease that targets SARS-COV-2 nsp3 macrodomain, whereby the mechanism of action displaces an ADP-Ribose modified peptide from the binding site. Utilizing a time-resolved fluorescence method to measure binding by reading the emitted fluorescence intensity in two wavelengths.

`O=C(CCN(Cc1cccc(Cl)c1)C(=O)[C@@H]1CNCC12CC2)N1CCNCC1`: the inhibition (commonly the change of the read-out against control, counted positive when it falls) turned out to be 4.21% (Concentration 49.75 uM, Number of replicates 2.0, Standard deviation 4.003 %) and 2.38% (Concentration 99.5 uM, Number of replicates 2.0, Standard deviation 2.443 %).

As to `CCc1n[nH]c(NC(=O)c2ccc(NC(=O)Nc3ccccc3)cc2)c1Br`, the inhibition (Concentration 49.75 uM, Number of replicates 2.0, Standard deviation 2.077 %) was -5.57% and the inhibition (Concentration 99.5 uM, Number of replicates 2.0, Standard deviation 0.313 %) stood at 0.467%.

On to `O=C(Nc1ccc(O)cc1)Nc1ccc(Oc2ccccc2)cc1`, for which the inhibition (Concentration 50.0 uM, Number of replicates 2.0, Standard deviation 2.274 %) was -3.31%.

On to `CC(C)[C@@H](Nc1ncnc2[nH]ccc12)C(F)F`, for which the inhibition runs as follows: (Concentration 49.75 uM, Number of replicates 2.0, Standard deviation 1.25 %) 81.6%; (Concentration 99.5 uM, Number of replicates 2.0, Standard deviation 1.983 %) 91.7%.

As for `O[C@H]1C[C@](CNc2ncnc3[nH]ccc23)(c2ccccc2)C1`, for the setting “Concentration 50.0 uM, Number of replicates 2.0, Standard deviation 6.633 %”, the inhibition was found to be 11.4%.

In the case of `COc1nc2cc(NC(=O)c3cc(N4CCNC4=O)ccc3F)ccc2[nH]1`, the inhibition (Concentration 50.0 uM, Number of replicates 2.0, Standard deviation 4.804 %) is -4.21%.

For the compound `CN(Cc1cn(C)nn1)C(=O)c1cnn2ccc(C3CCN(C(=O)c4ccccc4)CC3)cc12`, the inhibition by setting is: (Concentration 49.75 uM, Number of replicates 2.0, Standard deviation 4.768 %) 2.17%; (Concentration 99.5 uM, Number of replicates 2.0, Standard deviation 1.859 %) 1.34%.

Regarding `Cc1cc(N)ncc1C(=O)N1CCC(c2ccn3ncc(C(=O)N4CCCCC4)c3c2)CC1`, the inhibition is, setting by setting: (Concentration 49.75 uM, Number of replicates 2.0, Standard deviation 0.411 %) 19.5%; (Concentration 99.5 uM, Number of replicates 2.0, Standard deviation 3.667 %) 32.6%.

In the case of `CN(Cc1cn(C)nn1)C(=O)c1ccc(NC(=O)Nc2ccccc2)cc1`, the inhibition was 0.883% (Concentration 49.75 uM, Number of replicates 2.0, Standard deviation 0.56 %) and 0.566% (Concentration 99.5 uM, Number of replicates 2.0, Standard deviation 3.63 %).

Turning to `CC(C)[C@@H]1C(=O)NCCN1c1ncnc2[nH]ccc12`, the inhibition reads like this: (Concentration 49.75 uM, Number of replicates 2.0, Standard deviation 1.976 %) 61.4%; (Concentration 99.5 uM, Number of replicates 2.0, Standard deviation 0.754 %) 80.7%.

As to `Cn1c(C(=O)NCCn2cccc2)cc2c(=O)n3ccccc3nc21`, the inhibition (Concentration 50.0 uM, Number of replicates 2.0, Standard deviation 2.478 %) turned out to be 2.26%.

As for `Cc1cccc(Cl)c1-n1sc(=O)n(CC2CC2)c1=O`, for the setting “Concentration 50.0 uM, Number of replicates 2.0, Standard deviation 1.233 %”, the inhibition was 51.9%.

Consider `O=C(Cc1n[nH]c2c1CCCC2)Nc1cnc2[nH]ncc2c1`, for which, where the note is “Concentration 50.0 uM, Number of replicates 2.0, Standard deviation 2.447 %”, the inhibition is -1.26%.

`Cc1[nH]c2ncnc(NC(=O)C3CC=CC3)c2c1C`: the inhibition (Concentration 50.0 uM, Number of replicates 2.0, Standard deviation 5.54 %) came to 73.1%.

For the compound `Cc1[nH]ncc1CN(C)C(=O)c1cnn2ccc(C3CCN(C(=O)c4ccccc4)CC3)cc12`, the inhibition is -1.14% (Concentration 49.75 uM, Number of replicates 2.0, Standard deviation 5.917 %) and 0.307% (Concentration 99.5 uM, Number of replicates 2.0, Standard deviation 7.587 %).

Take `O=C(O)c1ccc2c(c1)ncn2-c1ccc(CNC(=O)c2ncnc3[nH]ccc23)cc1`: for the setting “Concentration 99.5 uM, Number of replicates 2.0, Standard deviation 0.835 %”, the inhibition is -4.65%.

With `C[C@@]1(C(N)=O)CCCN1C(=O)c1cnn2ccc(C3CCN(C(=O)c4ccccc4)CC3)cc12`, the inhibition is -8.04% (Concentration 49.75 uM, Number of replicates 2.0, Standard deviation 3.259 %) and 10.4% (Concentration 99.5 uM, Number of replicates 2.0, Standard deviation 21.157 %).

On to `O=C(NCC1(O)CCOCC1)c1cnn2ccc(C3CCN(C(=O)c4ccccc4)CC3)cc12`, for which the inhibition was -3.96% (Concentration 49.75 uM, Number of replicates 2.0, Standard deviation 3.347 %) and -1.1% (Concentration 99.5 uM, Number of replicates 2.0, Standard deviation 3.334 %).

With `C[C@H](NC(=O)c1ccc(NC(=O)Nc2ccccc2)cc1)c1ccccn1`, the inhibition stood at 2.45% (Concentration 49.75 uM, Number of replicates 2.0, Standard deviation 2.561 %) and 0.349% (Concentration 99.5 uM, Number of replicates 2.0, Standard deviation 6.365 %).

Regarding `Brc1ccc(-n2nnnc2Sc2ncnc3[nH]ccc23)cc1`, the inhibition (Concentration 50.0 uM, Number of replicates 2.0, Standard deviation 10.96 %) turned out to be 12.7%.

Consider `OC[C@@H]1CN(c2ncnc3nc[nH]c23)CCC1(F)F`, for which the inhibition (Concentration 50.0 uM, Number of replicates 2.0, Standard deviation 0.855 %) worked out at 1.75%.

Take `O=C(N[C@H]1CCC[C@H]1C(=O)O)c1cnn2ccc(C3CCN(C(=O)c4ccccc4)CC3)cc12`: the inhibition is, setting by setting: (Concentration 49.75 uM, Number of replicates 2.0, Standard deviation 2.492 %) 59.6%; (Concentration 99.5 uM, Number of replicates 2.0, Standard deviation 0.074 %) 73.5%.

Take `CC(C)[C@H]1CNC(=O)CN1c1ncnc2[nH]ccc12`: the inhibition (Concentration 49.75 uM, Number of replicates 2.0, Standard deviation 0.296 %) is 6.84% and the inhibition (Concentration 99.5 uM, Number of replicates 2.0, Standard deviation 2.93 %) came out at 17.6%.

In the case of `Cc1ccc(O)c(CNc2ncnc3[nH]cnc23)n1`, the inhibition (Concentration 50.0 uM, Number of replicates 2.0, Standard deviation 1.123 %) stood at 0.262% and the inhibition (Concentration 100.0 uM, Number of replicates 2.0, Standard deviation 2.0 %) amounted to 6.28%.

Consider `c1cnc([C@@H]2CCN(c3ncnc4[nH]ccc34)C2)cn1`, for which, under “Concentration 50.0 uM, Number of replicates 2.0, Standard deviation 2.663 %”, the inhibition is -1.7%.

Take `C[C@@H](O)[C@@H]1CN(C(=O)c2ncnc3[nH]ccc23)CCO1`: the inhibition (Concentration 50.0 uM, Number of replicates 2.0, Standard deviation 0.15 %) is -3.13%.

With `O=C(Nc1cnc2[nH]ncc2c1)c1noc2c1CCCC2`, for the setting “Concentration 50.0 uM, Number of replicates 2.0, Standard deviation 0.458 %”, the inhibition was -1.4%.

`COc1ccc(Nc2ncnc3[nH]ncc23)c(OC)c1`: the inhibition (Concentration 50.0 uM, Number of replicates 2.0, Standard deviation 7.795 %) amounted to 2.6%.

With `FC(F)(F)Oc1ccccc1-c1ncnc2[nH]ccc12`, the inhibition is, setting by setting: (Concentration 50.0 uM, Number of replicates 2.0, Standard deviation 5.274 %) -3.37%; (Concentration 100.0 uM, Number of replicates 2.0, Standard deviation 3.913 %) 2.12%.

Consider `O=C(CCN(Cc1cccc(Cl)c1)C(=O)c1cnon1)N1CCNCC1`, for which the inhibition (Concentration 49.75 uM, Number of replicates 2.0, Standard deviation 0.478 %) is -2.44% and the inhibition (Concentration 99.5 uM, Number of replicates 2.0, Standard deviation 0.154 %) was -1.08%.

Take `O=C(NCc1cn[nH]c1)c1cnn2ccc(C3CCN(C(=O)c4ccccc4)CC3)cc12`: the inhibition is -2.37% (Concentration 49.75 uM, Number of replicates 2.0, Standard deviation 0.103 %) and -4.5% (Concentration 99.5 uM, Number of replicates 2.0, Standard deviation 3.225 %).

Take `O=C(Nc1cnc2[nH]ncc2c1)C1CCN(c2ccc3nncn3n2)CC1`: for the setting “Concentration 50.0 uM, Number of replicates 2.0, Standard deviation 15.88 %”, the inhibition was 17%.

Regarding `Cc1nc(C(=O)N2CCC(c3ccn4ncc(C(=O)N5CCCCC5)c4c3)CC2)c(C)[nH]1`, the inhibition is 16.8% (Concentration 49.75 uM, Number of replicates 2.0, Standard deviation 0.064 %) and 27.5% (Concentration 99.5 uM, Number of replicates 2.0, Standard deviation 4.92 %).

Take `C[C@H](NC(=O)c1cnn2ccc(C3CCN(C(=O)c4ccccc4)CC3)cc12)c1cccnc1`: the inhibition (Concentration 49.75 uM, Number of replicates 2.0, Standard deviation 2.207 %) was -1.84% and the inhibition (Concentration 99.5 uM, Number of replicates 2.0, Standard deviation 1.542 %) is -6.21%.

For `O=C(c1cc(O)ccn1)N1CCC(c2ccn3ncc(C(=O)N4CCCCC4)c3c2)CC1`, the inhibition is 17.6% (Concentration 49.75 uM, Number of replicates 2.0, Standard deviation 1.167 %) and 32.2% (Concentration 99.5 uM, Number of replicates 2.0, Standard deviation 1.673 %).

Regarding `Cc1[nH]c2ncnc(NC(=O)CCc3ccccc3)c2c1C`, under “Concentration 50.0 uM, Number of replicates 2.0, Standard deviation 2.066 %”, the inhibition is 5.02%.

In the case of `O=C(c1cccc(Br)c1)N1CCC(c2ccn3ncc(C(=O)N4CCCCC4)c3c2)CC1`, the inhibition (Concentration 50.0 uM, Number of replicates 2.0, Standard deviation 0.499 %) amounted to 32.1%.

Take `O=S(=O)(NC[C@@H]1CCCCO1)c1cn2c(n1)CCCC2`: the inhibition (Concentration 50.0 uM, Number of replicates 2.0, Standard deviation 0.892 %) is -5.39%.
